Several values for one entry are separate records, joined by “and”; a condition that tells them apart may be missing. Equal entries are not always repeated. Where two headings read alike, the source gives them in different places.
Columns and labels:
[1] = target: T1, human AspH (His6-AspH315-758) (Homo sapiens, UniProt Q12797); design: method as in PMID 33069066; settings: ref 41a; read-out: IC50 (inhibition of AspH, literature); cited from earlier work
T1 construct: N-Terminally His6-tagged human AspH315-758 (His6-AspH315-758) was produced in Escherichia coli BL21 (DE3); made in house; host or cells: Escherichia coli BL21 (DE3), pET-28a(+) vector
T1 sequence (Q12797 315-758): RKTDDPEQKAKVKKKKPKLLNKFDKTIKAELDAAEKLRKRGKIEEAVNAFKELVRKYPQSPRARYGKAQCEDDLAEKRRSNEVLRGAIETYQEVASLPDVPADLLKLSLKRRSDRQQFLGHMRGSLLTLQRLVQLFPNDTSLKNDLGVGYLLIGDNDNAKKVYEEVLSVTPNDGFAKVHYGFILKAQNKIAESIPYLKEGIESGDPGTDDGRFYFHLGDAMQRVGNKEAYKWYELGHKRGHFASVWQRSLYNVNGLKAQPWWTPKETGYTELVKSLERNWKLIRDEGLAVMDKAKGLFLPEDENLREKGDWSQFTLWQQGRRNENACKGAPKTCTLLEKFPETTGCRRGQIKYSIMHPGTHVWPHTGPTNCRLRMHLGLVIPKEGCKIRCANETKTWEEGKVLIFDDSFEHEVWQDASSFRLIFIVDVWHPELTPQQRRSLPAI

[2] = target: T1, human AspH (His6-AspH315-758); assay: SPE-MS AspH inhibition assay; format: biochemical; settings: mean ± SD, n = 3
Experimental: 6. Recombinant AspH production and purification
N-Terminally His6-tagged human AspH315-758 (His6-AspH315-758) was produced in Escherichia coli BL21 (DE3) cells using a pET-28a(+) vector and purified by Ni(II)-affinity chromatography (HisTrap HP column, GE Healthcare; 1 mL/min flow rate) and size-exclusion chromatography (HiLoad 26/60 Superdex 75 pg 300 mL column; 1 mL/min) using an ÄKTA pure machine (GE Healthcare) as previously reported.1,4 AspH was >95% pure by SDS-PAGE and MS analysis and had the anticipated mass (calculated for His6-AspH315-758: 54519 Da, found: 54519 Da).1 Purified AspH was stored in 50 mM HEPES buffer (pH 7.5, 150 mM NaCl) at a concentration of 125 μM at -78 °C; fresh aliquots were used for all AspH assays.
7. AspH substrate synthesis
AspH substrates were designed based on the sequence of EGFD1 of human coagulation factor X (hFX amino acids 86-124), which is a reported cellular AspH substrate.2 All substrates were prepared with a C-terminal amide.
The hFX-EGFD186-124-4Ser peptide (hFX amino acids 86-124; Supporting Figure S1c),1 used for crystallography experiments, was synthesized by solid phase peptide synthesis (SPPS) and purified by GL Biochem (Shanghai) Ltd (Shanghai, China). The thioether linked cyclic peptide hFX-CP101-119 (hFX amino acids 101-119; Supporting
Figure S1d), which was used as substrate in AspH SPE-MS assays,4 was synthesized by an intramolecular thioetherification cyclization reaction from the corresponding linear peptide (D-Ala replacing Cys101hFX and Ser replacing Cys112hFX) which was obtained by microwave-assisted solid phase peptide synthesis using the Fmoc-protection strategy as described.4
8. AspH inhibition assays […]
water; ammonium iron(II) sulfate hexahydrate, FAS, (NH 4)2Fe(SO4)2·6H2O: 400 mM in 20 mM HCl diluted to 1 mM in Milli-Q® Ultrapure water) were freshly prepared each day from commercially sourced solids (Sigma […]
(Greiner) in an approximately three-fold and 11-point dilution series (100 μM top concentration) using an ECHO 550 acoustic dispenser (Labcyte). DMSO and 2,4 -PDCA were used as negative and positive controls , respectively .
The final DMSO concentration was kept constant at 0.5%v/v throughout all experiments (using the DMSO backfill option of the acoustic dispenser). Each reaction was performed in technical duplicates in adjacent wells of the assay plates; additionally, assays were performed in three independent technical duplicates on different days using different DMSO inhibitor solutions. […]
dispensed across the inhibitor-containing 384-well assay plates with a multidrop dispenser (ThermoFischer Scientific) at 20°C under an ambient atmosphere. The plates were subsequently centrifuged (1000 rpm, 30 s) and incubated for 15 minutes at 20°C. The Substrate Mixture (25 μL/well), containing 2.0 μM hFX-CP101-119, 200 μM […]
Note: The multidrop dispenser ensured proper mixing of the Enzyme and the Substrate Mixtures which was essential for assay reproducibility. The plates were centrifuged (1000 rpm, 30 s) and af ter incubating for 7 minutes, […]
centrifuged (1000 rpm, 60 s) and analysed by MS.
(§1) The mass spectrometer parameters were:
(§2) Data were exported into Microsoft
(§3) The standard deviation (SD) of three
(§4) Z’-factors were calculated
9. Determination of kinetic parameters […]
(§5) in 50 mM HEPES buffer (pH 7.5).

[3] = target: T1, human AspH (His6-AspH315-758); assay: NMR monitoring of AspH-catalyzed oxidative decarboxylation, with final SPE-MS analysis; format: biochemical; settings: for AspH-catalyzed oxidative decarboxylation of the 2OG derivative (NMR): 10 μM His6-AspH315-758, 150 μM hFX-CP101-119, 150 μM 2OG derivative, 50 μM FAS, pH 7.5, 25 °C; for hydroxylation (conversion) of hFX-CP101-119 in the final reaction mixture by SPE-MS / time to complete AspH-catalyzed oxidative decarboxylation (NMR): 10 μM AspH, 150 μM cosubstrate
Experimental: 2-methylsuccinate and terephthalate, respectively (continues on the following two pages). The AspH- […]
700 NMR machine equipped with a 5mm 1H(13C/15N) inverse cryoprobe. Assay conditions: 10 μM His6-AspH315- […]
iron(II) sulfate hexahydrate (FAS, (NH4)2Fe(SO4)2·6H2O) in 50 mM aqueous Tris-d11 containing 10 %v/v D2O (pH […]
product of the AspH-catalyzed reaction, was determined using SPE-MS (Supporting Information, Section 9) after […]
of the 1H NMR spectrum of commercial succinate in 50 mM aqueous Tris-d11 containing 10 %v/v D2O (pH 7.5, 25° […]
(1 picture or pasted object on this page, not shown here) […]
using a Bruker AVIII 700 NMR machine equipped with a 5mm 1H(13C/15N) inverse cryoprobe. Assay conditions: […]
ammonium iron(II) sulfate hexahydrate (FAS, (NH 4)2Fe(SO4)2·6H2O) in 50 mM aqueous Tris -d11 containing […]
which is the product of the AspH-catalyzed reaction, was determined using SPE-MS (Supporting Information, Section 9) after completion of the NMR experiments. […]
spectrum of synthetic 34 in 50 mM aqueous Tris-d11 containing 10 %v/v D2O (pH 7.5, 25° C); (b) Close-up (3.0-0.9 ppm) of the 1H NMR spectrum of commercial 2,2-dimethylsuccinate (52) in 50 mM aqueous Tris-d11

[4] = tested on: glutamic oxaloacetic aminotransferase; design: method as in doi:10.1002/1615-4169(200108)343:6/7<692::AID-ADSC692>3.0.CO; settings: cited from earlier work
human AspH = target: T2, human AspH (Homo sapiens, UniProt Q12797); assay: SPE-MS AspH turnover assay in the absence of 2OG (2OG derivative as cosubstrate); settings: 330 μM 2OG or 2OG derivative, 0.1 μM AspH, 2 μM hFX-CP101-119, 50 μM FAS, t = 15 min;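 note: percent conversion = hydroxylated cyclic peptide peak area relative to summed substrate plus product areas, taken from +2 charge state ion chromatograms by solid phase extraction MS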
T2 sequence (Q12797 315-758): T1 sequence (Q12797 315-758)
Experimental: AspH assays were performed as described in the ESI, ^† data are shown as the mean of three independent runs (n = 3; mean ± standard deviation, SD).
AspH assays were performed as described in Section 9 of the Supporting Information using 0.1 μM AspH, 2 μM
a positive control in the SPE-MS AspH turnover assays (Entry 1).
dependent conversion of the AspH substrate hFX-CP101-119 (Supporting Figure S1d). %-Substrate conversion is
AspH assays were performed as
described in Section 9 of the Supporting Information using 0.1 μM AspH, 2 μM hFX-CP101-119, 50 μM FAS, 330
AspH inhibition assays were incubated for 6 rather than 7 minutes before the enzyme reaction was
stopped by the addition of 10%v/v aqueous formic acid.
MS-analyses were performed using a RapidFire RF 365 high-throughput sampling robot (Agilent) attached to an
iFunnel Agilent 6550 accurate mass quadrupole time-of-flight (Q-TOF) mass spectrometer operated in the positive
ionization mode. Assay samples were aspirated under vacuum for 0.4 s and loaded onto a C4 solid phase extraction (SPE) cartridge. After loading, the C4 SPE cartridge was washed with 0.1%v/v aqueous formic acid to remove
non-volatile buffer salts (5 s, 1.5 mL/min). The peptide was eluted from the SPE cartridge with 0.1%v/v aqueous
formic acid in 85/15v/v acetonitrile/water into the mass spectrometer (5 s, 1.25 mL/min) and the SPE cartridge re-
equilibrated with 0.1%v/v aqueous formic acid (1 s, 1.25 mL/min). The mass spectrometer parameters were:
capillary voltage (4000 V), nozzle voltage (1000 V), fragmentor voltage (365 V), gas temperature (280°C), gas
flow (13 L/min), sheath gas temperature (350°C), sheath gas flow (12 L/min). The m/z +2 charge states of the
cyclic peptide (substrate) and the hydroxylated cyclic peptide (product) were used to extract ion chromatogram
data, peak areas were integrated using RapidFire Integrator software (Agilent). Data were exported into Microsoft
Excel and used to calculate the % conversion of the hydroxylation reaction using the equation: % conversion =
100 x (integral product cyclic peptide) / (integral substrate cyclic peptide + integral product cyclic peptide).
Normalized dose-response curves (2,4-PDCA and DMSO controls) were obtained from the raw data by non-linear
regression (GraphPad Prism 5) and used to determine IC50-values. The standard deviation (SD) of three
independent IC50 determinations (n = 3) was calculated using GraphPad Prism 5. Z’-factors were calculated
according to the cited literature using Microsoft Excel (Supporting Figure S3).14

[5] = target: T1, human AspH (His6-AspH315-758); assay: AspH steady-state kinetics by SPE-MS turnover assays; format: biochemical; settings: for K app m / v app max: 0.1 μM His6-AspH315–758, 2.0 μM hFX-CP101–119, in the presence of LAA, mean ± SD, n = 3
Experimental: Supporting Figure S6. Initial hydroxylation rates of AspH-catalyzed peptide hydroxylations used to
Measurement times were normalized to the first sample injection analyzed after the addition of the Enzyme
as §1, §2, §3, §4
9. Determination of kinetic parameters
as §5

[6] = target: T1, human AspH (His6-AspH315-758); design: method as in PMID 32107312; settings: cited from earlier work
[7] = 50 nM His6-AspH315–758, 1.0 μM hFX-CP101–119, 3 μM 2OG, read-out: IC50 (inhibition of AspH)
[8] = 50 nM His6-AspH315–758, 1.0 μM hFX-CP101–119, 3 μM 2OG

| SMILES | IC50 [2, 7] | AspH-catalyzed substrate conversion (hydroxylation of hFX-CP101-119) (human AspH) [%] | IC50 (inhibition of AspH) [2, 8] | K app m [5] [µM] | v app max [5] [µM/s] | time to complete AspH-catalyzed oxidative decarboxylation (NMR) [3] [min] | melting point | also measured |
| --- | --- | --- | --- | --- | --- | --- | --- | --- |
| O=C(O)C(=O)N[C@H](Cc1ccccc1)C(=O)O [NOFD, N-oxalyl-D-phenylalanine] |  |  |  |  |  |  |  | IC50 [1]: ~15.5 µM |
| CC(C)(CC(=O)C(=O)O)C(=O)O [compound 34, 4,4-Dimethyl-2OG] | ~0.3 µM and 0.3 µM | < 1 |  |  |  |  |  | IC50 ([2]; 50 nM His6-AspH315-758, 1.0 μM hFX-CP101-119, read-out: IC50 (ESI Fig. S4)): 0.31 ± 0.1 µM; IC50 ([2]; IC50 at 200 μM 2OG (ESI Table S1), assay concentration of 200 μM 2OG): 6.4 ± 0.4 µM; IC50 ([2]; IC50 at 400 μM 2OG (ESI Table S1), assay concentration of 400 μM 2OG): 10 ± 3.1 µM; IC50 ([2]; IC50 at 600 μM 2OG (ESI Table S1), assay concentration of 600 μM (0.6 mM) 2OG): 18.7 µM and ~18.7 µM; AspH-catalyzed oxidative decarboxylation of the 2OG derivative (NMR) [3]: undergoes slow AspH-catalyzed oxidative decarboxylation; hydroxylation (conversion) of hFX-CP101-119 in the final reaction mixture by SPE-MS ([3]; t = 15 h): ~ 95%; substitution for 2OG in transamination reactions [4]: does not efficiently substitute for 2OG |
| CC(CC(=O)O)C(=O)C(=O)O (stereo not drawn) [compound 16, 3-methyl-2OG] | > 50 µM | > 95 | Inactive | 0.27 ± 0.04 | 0.0069 ± 0.0002 | ≤ 5 |  |  |
| O=C(O)c1ccnc(C(=O)O)c1 [2,4-PDCA, pyridine-2,4-dicarboxylate] |  |  |  |  |  |  |  | IC50 [1]: ~0.03 µM |
| O=C(O)CCC(=O)C(=O)O [2OG, 2-Oxoglutarate, reference compound] |  |  |  | 1.3 ± 0.3 | 0.015 ± 0.0009 | ≤ 5 |  | k cat [5]: 0.17 ± 0.03 s⁻¹; hydroxylation (conversion) of hFX-CP101-119 in the final reaction mixture by SPE-MS ([3]; t = 5 min): > 95%; K app m (2OG) in the absence of LAA [6]: ~0.6 µM; v app max (2OG) in the absence of LAA [6]: ~0.0168 µM/s |
| O=C(O)C(=O)CC(Cc1ccccc1)C(=O)O (stereo not drawn) [compound 32, 4-benzyl-2OG] | 0.43 ± 0.05 µM | < 1 |  |  |  |  | > 240 °C (dec.) | AspH-catalyzed oxidative decarboxylation of the 2OG derivative (NMR) [3]: apparently not turned over |
| O=C(O)C(=O)c1ccc(C(=O)O)cc1 [compound 41, 4-carboxyphenylglyoxylic acid] |  | ~80 | did not inhibit | 61.9 ± 11.0 | 0.004 ± 0.0003 | ≤ 5 | > 350 °C (dec.) | IC50 (inhibition of AspH) ([2]; 50 nM His6-AspH315–758, 1.0 μM hFX-CP101–119, 3 μM 2OG, listed as C00012): Inactive; K app m relative to that for 2OG (times higher) ([5]; ratio to K app m of 2OG): ~47 |
| O=C(O)C(=O)c1ccc(C(=O)O)cc1F [compound 42] |  | ~45 | Inactive |  |  |  | > 310 °C (dec.) |  |

— article PMC8179049 (Chemical Science, 2020)
